Test results taken from article PMC3723632, “A Multi-targeted Drug Candidate with Dual Anti-HIV and Anti-HSV Activity” (PLoS Pathogens, 2013).

Assays:
HSV-2 (G) [1] = test: HSV-2 replication in human ex vivo tonsillar (lymphoid) tissue, viral DNA; assay type: cell-based; conditions: for HSV-2 DNA copies: human lymphoid tissue ex vivo; for EC99 (viral load reduced by 2 orders of magnitude): tonsilar tissue, RT-PCR assay
From the text: Figure 5 Suppression of HSV-2 in infected human ex vivo tonsillar tissue by adefovir and PMEO-DAPym. Blocks of human tonsillar tissue were inoculated ex vivo with HSV-2 (G) and treated or not with adefovir or PMEO-DAPym. We monitored HSV-2 (G) replication by measuring viral DNA in culture media at different times throughout the culture period. Presented are means ± SEM of cumulative HSV-2 (G) replication in tissues from two to six donors. For each donor, data represent pooled viral release from 27 tissue blocks.
Figure 7 Suppression of HSV-2 in single-infected and HIV-1 co-infected human ex vivo tonsillar tissue by adefovir and PMEO-DAPym. Panels A and B: Blocks of human tonsillar tissue from five different donors were co-inoculated ex vivo with HSV-2 (G) and HIV-1 (LAI) and treated or not with adefovir or PMEO-DAPym (1 µg/ml). For tissue from each donor, we monitored replication of both viruses by evaluating their accumulation in the culture media bathing 27 tissue blocks at different times throughout the culture. We evaluated HIV-1 replication by measuring p24gag and HSV-2 (G) replication by measuring HSV-2 viral DNA. Panel A: Presented are kinetics of HSV-2 (G) and HIV-1 (LAI) replication (insert). Each point represents the mean ± SEM of viral replication in tissues from five donors. Panel B: Presented are means ± SEM of cumulative HSV-2 (G) and HIV-1 (LAI) replication (insert).
Human tonsillar tissues were obtained from patients undergoing routine tonsillectomy at the Children's National Medical Center (Washington, DC) under IRB-approved protocol. Cervical tissues were obtained through the National Disease Research Interchange (NDRI, Philadelphia, PA). Tissues were dissected into blocks of about 2×2×2 mm and placed onto collagen sponge gels in culture medium at the air-liquid interface as described earlier. For tonsillar tissue for each experimental condition, 27 tissue blocks (9 blocks/well filled with 3 ml of medium) were inoculated with HSV-1 (strain F) or HSV-2 (strains G and MS). In coinfection experiments, tissue blocks were sequentially infected with HSV-2 (G) and HIV-1 (IIIB) (obtained from the Rush University Virology Quality Assurance Laboratory, Chicago, IL). Drugs (adefovir and PMEO-DAPym) were added to the culture medium 12 h prior to viral infection and replenished at each culture medium change.
(§1) For cervico-vaginal tissue, 16 blocks were infected by immersion in HSV-2G-containing medium and maintained on the gelfoam rafts. Adefovir was added at the time of infection and replenished at each culture medium change. HSV replication was evaluated from the release of viral DNA into the culture medium as measured with quantitative real-time PCR [18]. We evaluated HIV-1 replication from the release of p24 capsid antigen using a bead-based assay.

HIV-1 (LAI) = test: HIV-1 replication (p24) in coinfected human ex vivo lymphoid tissue; assay type: cell-based; conditions: lymphoid tissue coinfected with HIV-1 and HSV-2, 1 µg/ml
Experimental: Figure 7 Suppression of HSV-2 in single-infected and HIV-1 co-infected human ex vivo tonsillar tissue by adefovir and PMEO-DAPym. Panels A and B: Blocks of human tonsillar tissue from five different donors were co-inoculated ex vivo with HSV-2 (G) and HIV-1 (LAI) and treated or not with adefovir or PMEO-DAPym (1 µg/ml). For tissue from each donor, we monitored replication of both viruses by evaluating their accumulation in the culture media bathing 27 tissue blocks at different times throughout the culture. We evaluated HIV-1 replication by measuring p24gag and HSV-2 (G) replication by measuring HSV-2 viral DNA. Panel A: Presented are kinetics of HSV-2 (G) and HIV-1 (LAI) replication (insert). Each point represents the mean ± SEM of viral replication in tissues from five donors. Panel B: Presented are means ± SEM of cumulative HSV-2 (G) and HIV-1 (LAI) replication (insert). […]
as §1, with “Adefovir was added at the time of infection and replenished at each culture medium change.” left out

HSV-1 or HSV-2 = test: Topical treatment of athymic nude mice inoculated with HSV-1 or HSV-2; assay type: in vivo; conditions: topical gel twice daily for 5 days, p<0.05
Experimental: Figure 8 Effects of adefovir and PMEO-DAPym on mortality in mice inoculated with HSV-1 or HSV-2. Groups of five nu/nu mice were inoculated with HSV-1 (panel A) or HSV-2 (panel B) on the lumbosacral area. Each cohort was then subjected to topical treatment twice daily for 5 consecutive days, starting on the day of viral infection. The placebo groups received a similar treatment with the test formulation without drug. Mortality was recorded over a period of 30 days. Animals were euthanized when more than 30% loss in body weight or development of paralysis occurred. We estimated survival rates according to the Kaplan-Meier method and compared them using the log-rank test (Mantel-Cox using GraphPad Prism).
Female adult NMRI athymic nude mice or hairless mice (weighing ∼20 g and approximately 4 weeks old) were scarified on the lumbosacral area over a surface of about 1 cm^2 with 5×10^3 PFU of HSV-1 (KOS) or 5×10^2 PFU of HSV-2 (G).
Formulations of adefovir and PMEO-DAPym (0.3% and 1%) in a gel (identical to that used in the CAPRISA 004 trial) were applied topically twice a day for a period of 5 days starting 1–2 h post infection. In each experiment, a group of animals was treated with a placebo formulation that contained exactly the same vehicle but without drug. […] Development of lesions and mortality were recorded over a 1-month period. […]

HSV-2 (G) [2] = tested on: HSV-2 (G); design: method as in PMID 22018238; conditions: tonsilar tissue; cited from earlier work
HSV = tested on: HSV; design: method as in PMID 20643915, PMID 20709216; conditions: CAPRISA trial; cited from earlier work

| Compound | inhibition at 0.3 µg/mL (HSV-2 (G) [1]; Human alphaherpesvirus 2, human lymphoid tissue ex vivo, 0.3 µg/mL, read-out: Inhibition of viral replication (% to control)) | inhibition at 3 µg/mL (HSV-2 (G) [1]; Human alphaherpesvirus 2, human lymphoid tissue ex vivo, 3 µg/mL, read-out: Inhibition of viral replication (% to control)) | HSV-2 DNA copies (HSV-2 (G) [1]; 0.3 µg/mL) | HSV-2 DNA copies (HSV-2 (G) [1]; 3 µg/mL) | EC99 (viral load reduced by 2 orders of magnitude) (HSV-2 (G) [1]) | HIV-1 inhibition (HIV-1 (LAI)) | virus-related morbidity and survival (HSV-1 or HSV-2) | concentration that comparably inhibited HSV-2 replication (HSV-2 (G) [2]) | prevention of HSV infection (HSV) |
| --- | --- | --- | --- | --- | --- | --- | --- | --- | --- |
| Nc1cc(OCCOCP(=O)(O)O)nc(N)n1 [PMEO-DAPym, 6-phosphonylmethoxyethoxy-2,4-diaminopyrimidine] | 52.8% | > 99% | 5.76 e+7 copies | 8.08 e+5 copies | 2 µg/mL | 2 orders of magnitude | significantly delayed virus-related morbidity and prolonged the survival of the mice | – | – |
| C[C@H](Cn1cnc2c(N)ncnc21)OCP(=O)(O)O [Tenofovir, 9-(2-phosphonylmethoxypropyl)adenine] | – | – | – | – | – | – | – | 240 µg/mL | 51% |
| Nc1ncnc2c1ncn2CCOCP(=O)(O)O [Adefovir, 9-(2-phosphonylmethoxyethyl)adenine] | – | – | – | – | 5 µg/mL | 2 orders of magnitude | significantly delayed virus-related morbidity and prolonged the survival of the mice | – | – |
